From the NIST ThermoML archive (doi:10.1021/je060271a)
Numbers after ± are expanded uncertainties.

Details: 343.15 K, Liquid, Vibrating tube method

CCCCCC(=O)OCC(COC(=O)CCCCC)(COC(=O)CCCCC)COC(=O)CCCCC [pentaerythritol tetrahexanoate]
Details	mass density [kg/m3]
21939 kPa	973 ± 1.2
21970 kPa	972.9 ± 1.2
21994 kPa	973 ± 1.2
22600 kPa	973.4 ± 1.2
22626 kPa	973.4 ± 1.2
22658 kPa	973.4 ± 1.2
22686 kPa	973.3 ± 1.2
22712 kPa	973.5 ± 1.2
22744 kPa	973.6 ± 1.2
22771 kPa	973.5 ± 1.2
22798 kPa	973.5 ± 1.2
22831 kPa	973.5 ± 1.2
22858 kPa	973.7 ± 1.2
22886 kPa	973.6 ± 1.2
22919 kPa	973.6 ± 1.2
22946 kPa	973.6 ± 1.2
22973 kPa	973.7 ± 1.2
23356 kPa	974 ± 1.2
23808 kPa	974.2 ± 1.2
23832 kPa	974.2 ± 1.2
23863 kPa	974.2 ± 1.2
23889 kPa	974.2 ± 1.2
24332 kPa	974.5 ± 1.2
24359 kPa	974.5 ± 1.2
24391 kPa	974.4 ± 1.2
24418 kPa	974.6 ± 1.2
24449 kPa	974.6 ± 1.2
24476 kPa	974.6 ± 1.2
24504 kPa	974.6 ± 1.2
24536 kPa	974.6 ± 1.2
24563 kPa	974.7 ± 1.2
24590 kPa	974.6 ± 1.2
24623 kPa	974.7 ± 1.2
24651 kPa	974.6 ± 1.2
24678 kPa	974.6 ± 1.2
24711 kPa	974.8 ± 1.2
24738 kPa	974.7 ± 1.2
24766 kPa	974.8 ± 1.2
24799 kPa	974.9 ± 1.2
24827 kPa	974.8 ± 1.2
24855 kPa	974.9 ± 1.2
24888 kPa	974.9 ± 1.2
24917 kPa	975 ± 1.2
24945 kPa	974.9 ± 1.2
24979 kPa	974.9 ± 1.2
25008 kPa	974.9 ± 1.2
25036 kPa	975 ± 1.2
25070 kPa	975 ± 1.2
25099 kPa	975.2 ± 1.2
25128 kPa	975 ± 1.2
25162 kPa	975.1 ± 1.2
25191 kPa	975.2 ± 1.2
25220 kPa	975.2 ± 1.2
25249 kPa	975.1 ± 1.2
25284 kPa	975.1 ± 1.2
25313 kPa	975.2 ± 1.2
25349 kPa	975.2 ± 1.2
25379 kPa	975.3 ± 1.2
25408 kPa	975.2 ± 1.2
25438 kPa	975.4 ± 1.2
25473 kPa	975.3 ± 1.2
25502 kPa	975.2 ± 1.2
25532 kPa	975.2 ± 1.2
25562 kPa	975.2 ± 1.2
25598 kPa	975.4 ± 1.2
25628 kPa	975.4 ± 1.2
25657 kPa	975.4 ± 1.2
25693 kPa	975.4 ± 1.2
25724 kPa	975.5 ± 1.2
26078 kPa	975.6 ± 1.2
26108 kPa	975.7 ± 1.2
26134 kPa	975.6 ± 1.2
26161 kPa	975.8 ± 1.2
26188 kPa	975.7 ± 1.2
26213 kPa	975.8 ± 1.2
26245 kPa	975.8 ± 1.2
26271 kPa	975.7 ± 1.2
26298 kPa	975.9 ± 1.2
26330 kPa	975.7 ± 1.2
26356 kPa	975.9 ± 1.2
26387 kPa	976 ± 1.2
26413 kPa	975.9 ± 1.2
26439 kPa	976 ± 1.2
26471 kPa	975.9 ± 1.2
26498 kPa	975.9 ± 1.2
26524 kPa	976 ± 1.2
26552 kPa	975.9 ± 1.2
26585 kPa	976 ± 1.2
26612 kPa	976.1 ± 1.2
26644 kPa	976 ± 1.2
26671 kPa	976.1 ± 1.2
26873 kPa	976.3 ± 1.2
26906 kPa	976.2 ± 1.2
26934 kPa	976.2 ± 1.2
26962 kPa	976.3 ± 1.2
26990 kPa	976.1 ± 1.2
27023 kPa	976.3 ± 1.2
27051 kPa	976.1 ± 1.2
27079 kPa	976.3 ± 1.2
27113 kPa	976.4 ± 1.2
27141 kPa	976.3 ± 1.2
27174 kPa	976.3 ± 1.2
27202 kPa	976.4 ± 1.2
27230 kPa	976.3 ± 1.2
27264 kPa	976.5 ± 1.2
27293 kPa	976.4 ± 1.2
27322 kPa	976.5 ± 1.2
27351 kPa	976.4 ± 1.2
27385 kPa	976.5 ± 1.2
27414 kPa	976.6 ± 1.2
27449 kPa	976.6 ± 1.2
27478 kPa	976.5 ± 1.2
27508 kPa	976.5 ± 1.2
27537 kPa	976.6 ± 1.2
27572 kPa	976.6 ± 1.2
28317 kPa	977.1 ± 1.2
28347 kPa	977.2 ± 1.2
28372 kPa	977.1 ± 1.2
28396 kPa	977.2 ± 1.2
28427 kPa	977.3 ± 1.2
28453 kPa	977.2 ± 1.2
28479 kPa	977.2 ± 1.2
28503 kPa	977.2 ± 1.2
28528 kPa	977.2 ± 1.2
28558 kPa	977.3 ± 1.2
28583 kPa	977.4 ± 1.2
29079 kPa	977.5 ± 1.2
29105 kPa	977.6 ± 1.2
29132 kPa	977.6 ± 1.2
29164 kPa	977.6 ± 1.2
29190 kPa	977.6 ± 1.2
29216 kPa	977.6 ± 1.2
29248 kPa	977.7 ± 1.2
29274 kPa	977.7 ± 1.2
29301 kPa	977.7 ± 1.2
29333 kPa	977.8 ± 1.2
29446 kPa	977.9 ± 1.2
29473 kPa	977.8 ± 1.2
29506 kPa	977.8 ± 1.2
29763 kPa	978.1 ± 1.2
29796 kPa	978.2 ± 1.2
29852 kPa	978.1 ± 1.2
29886 kPa	978.2 ± 1.2
29914 kPa	978.1 ± 1.2
